From the NIST ThermoML archive (doi:10.1021/acs.jced.7b00657)
Numbers after ± are expanded uncertainties.

How the values were obtained:
[1] = 298 K; 101.33 kPa; Liquid; Vibrating tube method
[2] = refractive index (Na D-line) (dimensionless); conditions: 293 K; 101.33 kPa; Liquid; Standard Abbe refractometry

- mass density [1]: 1756 ± 1 kg/m3
- refractive index [2]: 1.268 ± 0.001
Structure (SMILES): FC(F)(F)C(F)(F)C(F)(F)C(F)(F)C(F)(F)C(F)(F)C(F)(F)C(F)(F)F [octadecafluorooctane]
